Measurements reported in patent US20230151025A1, “SUBSTITUTED THIAZOLOPYRIDINES, SALTS THEREOF AND THEIR USE AS HERBICIDALLY ACTIVE SUBSTANCES” (Bayer Aktiengesellschaft, priority 2020, published 2023).

Legend:
Type in all cases: in vivo
Veronica persica (VERPE) [1] = assay: Herbicidal pre-emergence action (A), 1280 g/ha; conditions: visual grading after ca. 3 weeks vs untreated controls
In short: (§1)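 Greenhouse pre-emergence test: formulated compound (WP/EC plus 0.5% additive, 600 l/ha water) applied to the soil over sown seeds in sandy loam. Percent herbicidal effect was rated by eye after ca. 3 weeks relative to untreated pots.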

[2] = test system: Echinochloa crus-galli (ECHCG); assay: Herbicidal pre-emergence action (A), 1280 g/ha; conditions: visual grading after ca. 3 weeks vs untreated controls, 100% = plants have died off, 0% = as control plants
In short: as §1

[3] = test system: Abutilon theophrasti (ABUTH); assay: Herbicidal pre-emergence action (A), 1280 g/ha; conditions: visual grading after ca. 3 weeks vs untreated controls, 100% = plants have died off, 0% = as control plants
In short: as §1

Poa annua (POAAN) [4] = assay: Herbicidal pre-emergence action (A), 1280 g/ha; conditions: visual grading after ca. 3 weeks vs untreated controls, 100% = plants have died off, 0% = as control plants
In short: as §1

[5] = test system: Kochia scoparia (KCHSC; Bassia scoparia); assay: Herbicidal pre-emergence action (A), 1280 g/ha; conditions: visual grading after ca. 3 weeks vs untreated controls
In short: as §1

Setaria viridis (SETVI) [6] = assay: Herbicidal pre-emergence action (A), 1280 g/ha; conditions: visual grading after ca. 3 weeks vs untreated controls
In short: as §1

Lolium rigidum (LOLRI) [7] = assay: Herbicidal pre-emergence action (A), 1280 g/ha; conditions: visual grading after ca. 3 weeks vs untreated controls, 100% = plants have died off, 0% = as control plants
In short: as §1

[8] = test system: Alopecurus myosuroides (ALOMY); assay: Herbicidal pre-emergence action (A), 1280 g/ha; conditions: visual grading after ca. 3 weeks vs untreated controls, 100% = plants have died off, 0% = as control plants
In short: as §1

[9] = test system: Digitaria sanguinalis (DIGSA); assay: Herbicidal pre-emergence action (A), 1280 g/ha; conditions: visual grading after ca. 3 weeks vs untreated controls, 100% = plants have died off, 0% = as control plants
In short: as §1

[10] = test system: Matricaria inodora (MATIN); assay: Herbicidal pre-emergence action (A), 1280 g/ha; conditions: visual grading after ca. 3 weeks vs untreated controls
In short: as §1

Stellaria media (STEME) [11] = assay: Herbicidal pre-emergence action (A), 1280 g/ha; conditions: visual grading after ca. 3 weeks vs untreated controls
In short: as §1

[12] = test system: Amaranthus retroflexus (AMARE); assay: Herbicidal pre-emergence action (A), 1280 g/ha; conditions: visual grading after ca. 3 weeks vs untreated controls
In short: as §1

Lolium rigidum (LOLRI) [13] = assay: Herbicidal pre-emergence action (C), 320 g/ha; conditions: ca. 3 weeks
In short: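 Greenhouse pre-emergence trial with compounds sprayed onto soil above sown seeds in sandy loam (aqueous WP or EC, 0.5% additive, 600 l water/ha); effect scored by eye at roughly 3 weeks as percent damage versus controls.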

[14] = test system: Digitaria sanguinalis (DIGSA); assay: Herbicidal pre-emergence action (C), 320 g/ha; conditions: ca. 3 weeks
In short: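 Weed and crop seeds sown in sandy loam; WP or EC formulations applied pre-emergence to the soil surface as aqueous suspension/emulsion with 0.5% additive at 600 l water/ha. Greenhouse-grown under optimum conditions; damage visually scored after ca. 3 weeks versus untreated controls (0% = as control, 100% = plants dead).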

Veronica persica (VERPE) [15] = assay: Herbicidal post-emergence action (B), 1280 g/ha
In short: (§2)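 Foliar post-emergence treatment of one-leaf-stage weeds with WP or EC preparations in water plus 0.5% additive, sprayed at 600 L/ha. Visual efficacy was assessed after roughly 3 weeks relative to untreated controls, 100% being complete kill.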

[16] = test system: Echinochloa crus-galli (ECHCG); assay: Herbicidal post-emergence action (B), 1280 g/ha; conditions: rated visually after about 3 weeks vs untreated controls
In short: as §2

[17] = test system: Abutilon theophrasti (ABUTH); assay: Herbicidal post-emergence action (B), 1280 g/ha; conditions: rated visually after about 3 weeks vs untreated controls
In short: as §2

Poa annua (POAAN) [18] = assay: Herbicidal post-emergence action (B), 1280 g/ha; conditions: rated visually after about 3 weeks vs untreated controls
In short: as §2

[19] = test system: Kochia scoparia (KCHSC; Bassia scoparia); assay: Herbicidal post-emergence action (B), 1280 g/ha
In short: as §2

Setaria viridis (SETVI) [20] = assay: Herbicidal post-emergence action (B), 1280 g/ha; conditions: rated visually after about 3 weeks vs untreated controls
In short: as §2

[21] = test system: Alopecurus myosuroides (ALOMY); assay: Herbicidal post-emergence action (B), 1280 g/ha; conditions: rated visually after about 3 weeks vs untreated controls
In short: as §2

[22] = test system: Digitaria sanguinalis (DIGSA); assay: Herbicidal post-emergence action (B), 1280 g/ha; conditions: rated visually after about 3 weeks vs untreated controls
In short: as §2

Stellaria media (STEME) [23] = assay: Herbicidal post-emergence action (B), 1280 g/ha
In short: as §2

[24] = test system: Amaranthus retroflexus (AMARE); assay: Herbicidal post-emergence action (B), 1280 g/ha; conditions: rated visually after about 3 weeks vs untreated controls
In short: as §2

Lolium rigidum (LOLRI) [25] = assay: Herbicidal post-emergence action (B), 1280 g/ha; conditions: one-leaf stage, rated after about 3 weeks vs untreated controls, 100% activity = the plants have died, 0% = like control plants
In short: as §2

| Structure (SMILES) | herbicidal effect VERPE (Veronica persica (VERPE) [1]) [%] | ECHCG, herbicidal effect in percent (%) [2] [%] | ABUTH, herbicidal effect in percent (%) [3] [%] | POAAN, herbicidal effect in percent (%) (Poa annua (POAAN) [4]) | herbicidal effect KCHSC [5] [%] | herbicidal effect SETVI (Setaria viridis (SETVI) [6]) [%] | LOLRI, herbicidal effect in percent (%) (Lolium rigidum (LOLRI) [7]) | ALOMY, herbicidal effect in percent (%) [8] [%] | herbicidal effect MATIN [10] [%] | herbicidal effect STEME (Stellaria media (STEME) [11]) [%] | herbicidal effect AMARE [12] [%] | herbicidal effect LOLRI (Lolium rigidum (LOLRI) [13]) [%] | herbicidal effect VERPE (Veronica persica (VERPE) [15]) [%] | herbicidal activity ECHCG [16] [%] | herbicidal activity POAAN (Poa annua (POAAN) [18]) [%] | herbicidal effect KCHSC [19] [%] | herbicidal activity SETVI (Setaria viridis (SETVI) [20]) [%] | herbicidal activity ALOMY [21] [%] | herbicidal effect STEME (Stellaria media (STEME) [23]) [%] | herbicidal activity AMARE [24] [%] | also measured |
| --- | --- | --- | --- | --- | --- | --- | --- | --- | --- | --- | --- | --- | --- | --- | --- | --- | --- | --- | --- | --- | --- |
| CCc1cc2scnc2nc1-c1cccc(F)c1 [Example I-029] | 90 | 100 | 90 | 100 | 100 | 100 | 100 | 100 | 90 | 100 | 100 | 100 | 90 | 100 | 100 | 100 | 100 | 100 | 100 | 100 | DIGSA, herbicidal effect in percent (%) [9]: 100%; herbicidal effect DIGSA [14]: 100%; herbicidal activity ABUTH [17]: 100%; herbicidal activity DIGSA [22]: 100% |
| Fc1ccccc1-c1nc2ncsc2cc1C1CC1 [Example I-102] | 100 | 100 | 90 | 100 | 100 | 100 | 100 | 100 | 100 | 90 | 90 | 100 | 100 | 100 | 90 | 100 | 100 | 100 | 100 | 100 | DIGSA, herbicidal effect in percent (%) [9]: 100%; herbicidal activity DIGSA [22]: 100% |
| Cc1cc2scnc2nc1-c1cccc(F)c1 [Example I-003, 5-(3-fluorophenyl)-6-methyl-thiazolo[4,5-b]pyridine] | 90 | 100 |  | 100 | 100 | 100 | 100 | 90 | 90 | 90 | 90 | 100 | 90 | 100 | 100 | 90 | 90 | 100 | 100 | 100 | DIGSA, herbicidal effect in percent (%) [9]: 100%; herbicidal effect DIGSA [14]: 100%; herbicidal activity DIGSA [22]: 90% |
| Cc1cc2scnc2nc1-c1ccsc1C [Example I-194] | 100 | 100 |  | 100 | 100 | 100 | 100 | 100 | 100 | 100 | 100 | 100 | 100 | 100 | 100 | 100 |  | 100 | 100 | 100 | herbicidal activity ABUTH [17]: 90%; LOLRI, activity rated visually (%) (Lolium rigidum (LOLRI) [25]): 100% |
| Cc1cc2scnc2nc1-c1sccc1C [Example I-143] | 100 | 100 | 90 | 100 | 90 | 100 | 100 | 100 | 90 | 90 | 90 | 100 | 100 | 100 | 100 | 100 | 90 | 100 | 100 | 100 | herbicidal activity ABUTH [17]: 100%; LOLRI, activity rated visually (%) (Lolium rigidum (LOLRI) [25]): 100% |
| Fc1ccccc1-c1nc2ncsc2cc1I [Example I-188] | 90 | 100 |  | 100 | 90 | 100 | 100 | 100 | 90 | 90 |  | 100 |  | 90 | 90 | 90 | 90 |  | 90 | 100 | LOLRI, activity rated visually (%) (Lolium rigidum (LOLRI) [25]): 90% |
